Results taken from US20100249138A1, “MPZP: A SMALL MOLECULE CORTICOTROPIN-RELEASING FACTOR TYPE 1 RECEPTOR (CRF1) ANTOGONIST” (priority 2007, published 2010).

How the values were obtained:
[1] = tested on: CRF2 receptors; assay: CRF receptor autoradiography, rat brain sections, CRF2-rich regions; assay type: binding
Experimental: For CRF receptor autoradiography, brain tissue was sectioned coronally (20 μm) using a cryostat (−17° C.). Sections were mounted on Superfrost Plus+ charged glass slides (Fisher Scientific, Pittsburgh, Pa.), permitted to dry completely, and stored in airtight boxes at −80° C. until the day of autoradiography. Autoradiography was performed using standard procedures based on the previous characterization of [^125I]Tyr^0-sauvagine [Grigoriadis et al., Mol. Pharmacol. (1996) 50:679-686].
Slides containing triplicate adjacent brain sections were thawed to room temperature and permitted to dry completely. Each section then was outlined using a PAP pen (Calbiochem, San Diego, Calif.). Sections were incubated in assay buffer (DPBS with 10 mM MgCl2, 2 mM EGTA, 1 tablet/100 ml protease inhibitor, 0.15% bovine serum albumin) for 15 minutes to remove endogenous ligand. Slides then were incubated under one of four conditions: (1) 0.2 nM […] to determine total binding; (2) 0.2 nM radiolabeled sauvagine+1 μM R121919 (below)
to determine non-CRF1 (e.g., CRF2) receptor binding; (3) 0.2 nM radiolabeled sauvagine+3 μM MPZP to determine non-CRF1 (e.g., CRF2) receptor binding using the experimental compound under study; (4) 0.2 nM radiolabeled sauvagine+0.3 μM unlabeled D-Phe-CRF12-41, a subtype-nonspecific CRF receptor antagonist, to determine non-CRF1/CRF2 (e.g., nonspecific binding).
After 2 hours incubation at room temperature, unbound radioligand was removed via a brief dip in ice-cold assay buffer, followed by two 5 minute rinses in ice-cold washing buffer (DPBS with 0.01% Triton-X100) and one brief dip in ice-cold distilled, deionized H2O. Slides then were dried at room temperature and exposed to Kodak Biomax MR film for 2 days. Unlabeled peptides (sauvagine, D-Phe-CRF12-41) were generously provided by Dr. Jean Rivier (The Salk Institute, La Jolla, Calif.). Images were captured using a light box and digital camera computer workstation using a MTI CCDC72 digital camera equipped with a 90 mm Tamron macro lens. […]

[2] = tested on: 62 other receptors, transporters, and ion channels; assay: Novascreen side-effect potential screening assay (GEN SEP I panel); assay type: binding; details: 10 μM
Experimental: Specificity of MPZP for other receptor, transporter, and ion channel targets was determined at 1 and 10 μM concentrations via a commercial screening service (Novascreen, GEN SEP I panel, Hanover, Md.).

[3] = tested on: cocaine self-administration; assay: Cocaine self-administration in short access (ShA) and long access (LgA) rats; assay type: in vivo, rat; details: for cocaine intake compared with vehicle: 45 minutes before session
[4] = target: T1, CRF1 receptors (Rattus norvegicus, UniProt P35353); assay: [125I]-Tyr0-sauvagine competition binding, rat cerebellar membrane homogenates; design: from tissue; host or cells: rat cerebellum, membrane homogenate; details: read-out: IC50, displacement of specific [125I]-Tyr0-sauvagine binding
T1 sequence (P35353 24-415): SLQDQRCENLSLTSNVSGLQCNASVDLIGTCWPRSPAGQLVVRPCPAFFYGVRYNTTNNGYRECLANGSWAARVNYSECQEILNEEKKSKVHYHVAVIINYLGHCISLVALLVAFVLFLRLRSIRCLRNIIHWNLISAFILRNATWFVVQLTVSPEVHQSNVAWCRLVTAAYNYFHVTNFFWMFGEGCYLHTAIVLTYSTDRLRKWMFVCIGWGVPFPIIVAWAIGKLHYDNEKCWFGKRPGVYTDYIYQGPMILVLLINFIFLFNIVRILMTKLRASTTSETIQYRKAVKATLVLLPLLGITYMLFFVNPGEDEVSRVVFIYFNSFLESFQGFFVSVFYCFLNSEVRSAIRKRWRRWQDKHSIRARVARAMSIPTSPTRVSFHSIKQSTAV
Experimental: Binding activity of MPZP was determined in a competition assay using […] (2200 Ci/mmol; Perkin Elmer, Waltham, Mass.) as the radioligand. Cerebellum was homogenized in homogenizing buffer (Dulbecco's phosphate-buffered saline [PBS]:1.5 mM KH2PO4, 8.1 mM Na2HPO4, 2.7 mM KCl, 138 mM NaCl, pH 7.2, supplemented with 10 mM MgCl2, 2 mM EGTA) using a Polytron (Dispersing and Mixing Technology, Kinematica, Littau-Lucerne, Switzerland) at setting 6 for 2×15 seconds on ice. The homogenate was centrifuged at 45,000×g for 20 minutes at 4° C. The pellet was resuspended and spun at 45,000×g for 20 minutes at 4° C. The final pellet was resuspended in assay buffer (homogenizing buffer supplemented with protease inhibitor; 1 tablet/10 ml; Sigma CAT#58829-20TAB, St. Louis, Mo., pH 7.4) using a Polytron.
Med. Chem. (2000) 8:181-189], whose structural formula is shown below.
Total binding was determined using assay buffer in lieu of a CRF1 antagonist, and nonspecific binding was determined in the presence of 1 μM unlabeled sauvagine. The final radioligand concentration was 0.2 nM, and the reaction was incubated at room temperature for 2 hours. […] The pellet-containing tip was cut off and counted in an automated 10-detector gamma counter (MicroMedic Apex, ICN Biomedical, Costa Mesa, Calif.) at 80% efficiency. […]

displacement of [125I]-Tyr0-sauvagine binding from CRF2-rich regions ([1]; 3 μM, rat lateral septum, ventromedial hypothalamus, choroid plexus, cerebral arterioles): did not displace
specificity for CRF2 receptors ([1]; at up to 1 μM concentrations): no measurable specificity
displacement of [125I]-Tyr0-sauvagine binding (CRF2-like binding) ([1]; rat lateral septum or ventromedial hypothalamus, concentration printed 1 mM): does not displace
IC50 [4]: 6.1 nM
SMILES: COCCN(CCOC)c1cc(C)nc2c(-c3ccc(OC)cc3C)c(C)nn12 [MPZP, N,N-bis(2-methoxyethyl)-3-(4-methoxy-2-methylphenyl)-2,5-dimethyl-pyrazolo[1,5-a]pyrimidin-7-amine]
activity at 62 other receptors, transporters, and ion channels [2]: did not exhibit high activity
slope of linear trend dose function on cocaine intake ([3]; LgA rats): −0.601±0.176
cocaine intake compared with vehicle ([3]; LgA rats, 10 mg/kg s.c.): significant decrease
cocaine intake compared with vehicle ([3]; LgA rats, 27.5 mg/kg s.c.): significant decrease
slope of linear trend dose function on cocaine intake ([3]; ShA rats): −0.254±0.106
cocaine intake compared with vehicle ([3]; ShA rats, 27.5 mg/kg s.c.): significant decrease
